{"source": "BindingDB's records for patent US11752155", "about": "(Rugen Holdings (Cayman), 2023)", "molecular_target": "hERG (Potassium voltage-gated channel subfamily H member 2) (Homo sapiens, UniProt Q12809)", "sequence (Q12809 whole entry)": "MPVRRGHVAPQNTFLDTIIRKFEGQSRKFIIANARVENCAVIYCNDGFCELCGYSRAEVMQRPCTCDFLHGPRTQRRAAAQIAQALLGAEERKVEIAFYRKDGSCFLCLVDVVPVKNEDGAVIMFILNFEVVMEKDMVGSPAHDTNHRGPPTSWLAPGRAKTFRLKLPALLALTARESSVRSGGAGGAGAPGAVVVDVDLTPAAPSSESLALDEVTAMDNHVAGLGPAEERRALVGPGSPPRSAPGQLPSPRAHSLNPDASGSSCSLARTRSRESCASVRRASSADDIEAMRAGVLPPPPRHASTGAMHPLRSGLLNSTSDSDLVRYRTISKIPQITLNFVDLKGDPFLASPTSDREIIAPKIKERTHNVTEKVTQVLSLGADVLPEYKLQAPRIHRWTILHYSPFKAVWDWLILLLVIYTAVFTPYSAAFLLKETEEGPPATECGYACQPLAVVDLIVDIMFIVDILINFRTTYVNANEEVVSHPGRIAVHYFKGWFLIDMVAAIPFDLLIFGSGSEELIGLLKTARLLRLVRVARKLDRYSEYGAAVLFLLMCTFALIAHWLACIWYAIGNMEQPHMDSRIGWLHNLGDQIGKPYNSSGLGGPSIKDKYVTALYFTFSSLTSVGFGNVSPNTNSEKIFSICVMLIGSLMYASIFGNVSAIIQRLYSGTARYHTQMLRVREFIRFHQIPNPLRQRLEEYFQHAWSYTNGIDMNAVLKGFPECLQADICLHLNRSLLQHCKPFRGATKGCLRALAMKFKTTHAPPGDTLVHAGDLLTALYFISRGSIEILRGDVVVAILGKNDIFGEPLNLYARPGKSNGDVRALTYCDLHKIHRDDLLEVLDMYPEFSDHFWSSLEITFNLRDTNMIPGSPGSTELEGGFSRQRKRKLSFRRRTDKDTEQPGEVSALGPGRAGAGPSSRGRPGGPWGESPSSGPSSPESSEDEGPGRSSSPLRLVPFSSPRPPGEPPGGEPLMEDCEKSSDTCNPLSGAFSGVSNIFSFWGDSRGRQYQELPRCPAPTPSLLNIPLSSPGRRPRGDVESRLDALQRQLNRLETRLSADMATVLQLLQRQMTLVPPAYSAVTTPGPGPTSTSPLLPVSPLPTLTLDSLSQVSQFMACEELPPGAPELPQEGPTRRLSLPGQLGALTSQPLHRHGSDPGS", "assay": "hERG Channel Inhibition", "details": "HEK293 cells stably expressing hERG channel, pH 7.35", "description": "The assay was performed on hERG channel stably expressed in HEK293 cells. The cells were cultured at 37° C. in a humidified CO2 incubator in the growth medium consisting of DMEM, 10% fetal bovine serum and antibiotics. Prior to the assay, the cells were seeded onto a 12-mm PDL-coated glass coverslip and cultured in a 35-mm Petri dish. […] Giga-seal was maintained during the test. […] Whole-cell hERG currents were recorded following the Petroski protocol: the cell was held at −80 mV, and the voltage step jumped from −80 to 30 mV and stay for 2 seconds with a 20-millisecond prepulse at −40 mV. After depolarization, the voltage was decreased to −40 mV and stay for 2 seconds, and returned back to −80 mV. Test compound was applied by quartz capillary tubes tip (200 m inner diameter), and the flow rate was controlled at 2-3 mL/min with OctaFlow perfusion system. Different concentrations of the compound were applied to the cells for 5 minutes and the hERG current was measured three times before, during and after compound treatment. The data were analyzed using Clampfit 10 software (Molecular Devices) to generate IC50 values."}
{"smiles": "FC(F)(F)Oc1ccc(C(F)(F)CN2CCC(Nc3ncnc4[nH]ccc34)CC2)nc1", "note": "[US11752155, Compound C-11A']", "values": [{"measurement": "IC50 at 5 min", "value": 3.8, "unit": "µM"}]}
